Measured values taken from patent US20240254138A1, “TRICYCLIC PYRIMIDINES AS CYCLIN-DEPENDENT KINASE 7 (CDK7) INHIBITORS” (JANSSEN PHARMACEUTICA NV, priority 2021, published 2024).
Read-outs that look alike come from different tables or passages of the source.

Experiments:
[1] = test system: RNA Polymerase II Serine 5 phosphorylation (Rpb1 CTD, downstream substrate of CDK7) in A549 cells; test: Imaging-based cellular RNA PolII Ser5 phosphorylation assay in A549 cells; assay type: cell-based, human; conditions: wild-type CDK7, RNA PolII Ser5 phosphorylation, averaged over all measurements; for IC50: Homo sapiens, A549, A549 cells, read-out: CDK7_A549 Wild-type CDK7 (pIC50) (converted)
Method in brief: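 A549 cells, seeded 1000/well in DMEM with 1% FBS and cultured 20 h, were treated with compound for 3 h at 37 °C. Ser5-phospho-Rpb1 CTD detected by immunofluorescence imaging after fixation and methanol permeabilization; IC50 from curve fit normalized to DMSO and 10 μM reference-compound controls.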

[2] = test system: RNA Polymerase II Serine 5 phosphorylation in A549 cells overexpressing CDK7-mutant (C312S); test: Imaging-based cellular RNA PolII Ser5 phosphorylation assay in A549 cells overexpressing CDK7-mutant (C312S); assay type: cell-based, human; conditions: RNA PolII Ser5 phosphorylation, averaged over all measurements; for IC50: Homo sapiens, A549, A549 cells overexpressing CDK7-mutant (C312S), read-out: CDK7_A549 mutant hCDK7(pIC50) (converted)
Method in brief: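 A549 cells overexpressing CDK7 C312S (with endogenous wild-type CDK7) were treated with compound for 3 h at 37 °C in 1% FBS medium. Phospho-Rpb1 CTD Ser5 was immunostained after fixation and imaged. IC50 came from curve fit of % control, normalised to DMSO and 10 μM reference-compound controls.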

[3] = target: CDK7/cyclinH/MAT1 trimeric complex (Homo sapiens, UniProt P50613); test: In vitro CDK7 assay, potency of irreversible covalent inhibitors (kinact/KI), coupled PK/LDH ADP readout at 340 nm; conditions: for Ki: CDK7 (20 nM enz.) (KI, μM); for kinact: read-out: CDK7 (20 nM enz.) (kinact, s^−1), 20 nM enzyme
[4] = read-out: CDK7 (20 nM enz.) (kinact/KI, M^−1*s^−1), 20 nM enzyme
[5] = read-out: CDK7 (20 nM enz.) (kobs/[I], M^−1*s^−1), 20 nM enzyme

CDK7/cyclinH/MAT1 trimeric complex, sequence (P50613 whole entry): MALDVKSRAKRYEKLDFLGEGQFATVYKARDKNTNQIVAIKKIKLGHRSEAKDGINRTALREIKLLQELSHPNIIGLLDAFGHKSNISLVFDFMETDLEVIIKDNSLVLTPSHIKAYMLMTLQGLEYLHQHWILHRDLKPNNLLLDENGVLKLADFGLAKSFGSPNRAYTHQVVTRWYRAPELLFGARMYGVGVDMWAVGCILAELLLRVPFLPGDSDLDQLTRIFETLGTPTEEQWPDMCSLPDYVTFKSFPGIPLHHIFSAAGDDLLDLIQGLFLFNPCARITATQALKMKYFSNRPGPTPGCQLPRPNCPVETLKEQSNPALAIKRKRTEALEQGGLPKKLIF
CDK7/cyclinH/MAT1 trimeric complex, sequence (P51946 whole entry partner): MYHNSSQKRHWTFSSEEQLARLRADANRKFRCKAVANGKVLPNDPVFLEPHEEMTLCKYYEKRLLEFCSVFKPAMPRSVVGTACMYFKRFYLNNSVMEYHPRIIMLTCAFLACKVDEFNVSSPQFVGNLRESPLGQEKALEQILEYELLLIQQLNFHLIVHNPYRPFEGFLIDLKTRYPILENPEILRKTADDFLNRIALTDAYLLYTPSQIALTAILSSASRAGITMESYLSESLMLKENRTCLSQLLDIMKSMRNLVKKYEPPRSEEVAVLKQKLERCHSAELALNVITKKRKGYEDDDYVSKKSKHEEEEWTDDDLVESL
CDK7/cyclinH/MAT1 trimeric complex, sequence (P51948 whole entry partner): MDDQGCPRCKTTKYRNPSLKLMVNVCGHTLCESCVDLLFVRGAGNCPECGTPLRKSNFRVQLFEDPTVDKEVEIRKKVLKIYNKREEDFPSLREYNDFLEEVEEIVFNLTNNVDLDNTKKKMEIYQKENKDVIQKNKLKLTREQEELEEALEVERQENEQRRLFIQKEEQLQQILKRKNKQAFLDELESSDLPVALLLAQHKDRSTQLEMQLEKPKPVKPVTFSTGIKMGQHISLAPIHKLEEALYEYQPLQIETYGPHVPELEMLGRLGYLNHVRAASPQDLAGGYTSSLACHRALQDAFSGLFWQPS

| IC50 [1] [nM] | IC50 [2] [nM] | Ki ([3]; 20 nM enzyme) [µM] | kinact [3] [s⁻¹] | kinact/KI [3, 4] [M⁻¹ s⁻¹] | CDK7_A549 Wild-type CDK7 (pIC50) ([1]; A549 cells) | CDK7_A549 mutant hCDK7(pIC50) ([2]; A549 cells overexpressing CDK7-mutant (C312S)) | kinact/KI [3, 5] [M⁻¹ s⁻¹] | CDK7 (20 nM enz.) (kobs/[I], M^−1*s^−1) ([3]; 20 nM enzyme) [M⁻¹ s⁻¹] | SMILES |
| --- | --- | --- | --- | --- | --- | --- | --- | --- | --- |
| 58.9 | > 10000 | 0.0892 | 4.72e-05 | 530 | – | – | – | – | C=CC(=O)N1CC[C@@H](N2CC(c3cc(C)c4c(c3)Nc3nccc(-c5cnn(C)c5)c3CO4)C2)C1 (single isomer, unassigned) [Compound 194] |
| 105 | > 3980 | 0.0924 | 4.58e-05 | 496 | – | – | – | – | C=CC(=O)N1CC[C@@H](N2CC(c3cc(C)c4c(c3)Nc3nccc(C5CCOCC5)c3CO4)C2)C1 (single isomer, unassigned) [Compound 196] |
| 288 | > 10000 | 0.449 | 3.63e-05 | 80.8 | – | – | – | – | C=CC(=O)N1CC[C@H](N2CC(c3cc4c(c(C)n3)OCc3c(-c5cnn(C)c5)ccnc3N4)C2)C1 (single isomer, unassigned) [Compound 199] |
| 339 | > 10000 | 0.352 | 3.71e-05 | 105 | – | – | – | – | C=CC(=O)N1CC[C@@H](N2CC(c3cc4c(c(C)n3)OCc3c(-c5cnn(C)c5)ccnc3N4)C2)C1 (single isomer, unassigned) [Compound 204] |
| – | – | 7.29 | 7.18e-05 | 9.85 | ~5 | <5 | – | – | C#Cc1cc2c(cc1C1CCN(C3CN(C(=O)C=C)C3)CC1)Nc1nccc(N3CCOCC3)c1[C@@H](C)O2 (single isomer, unassigned) [Compound 211] |
| 200 | > 10000 | 0.311 | 6.39e-05 | 206 | – | – | – | – | C=CC(=O)N1CC(N2CCO[C@H](c3cc(C)c4c(c3)Nc3nccc(C5CCOCC5)c3CO4)CC2)C1 (single isomer, unassigned) [Compound 219] |
| 282 | > 10000 | 0.512 | 7.79e-05 | 152 | – | – | – | – | C=CC(=O)N1CC(N2CCO[C@@H](c3cc(C)c4c(c3)Nc3nccc(C5CCOCC5)c3CO4)CC2)C1 (single isomer, unassigned) [Compound 221] |
| 3980 | > 10000 | – | – | 3 | – | – | – | – | C=CC(=O)N1CC(N2CC[C@H](c3cc4c(c(C)n3)O[C@H](C)c3c(N5CCOCC5)ccnc3N4)C2)C1 (single isomer, unassigned) [Compound 224] |
| 724 | > 10000 | 3.01 | 6.83e-05 | 22.7 | – | – | – | – | C=CC(=O)N1CC[C@@H](N2CC(c3cc(C)c4c(c3)Nc3nccc(N5CCOCC5)c3[C@H](C)O4)C2)C1 (single isomer, unassigned) [Compound 227] |
| 20 | 6760 | – | – | – | – | – | 791 | – | C=CC(=O)N1CC[C@@H](N2CC(c3cc(C)c4c(c3)Nc3nccc(N5CCOCC5)c3[C@@H](C)O4)C2)C1 (single isomer, unassigned) [Compound 230] |
| 380 | > 10000 | 1.61 | 6.1e-05 | 37.8 | – | – | – | – | C=CC(=O)N1CC[C@H](N2CC(c3cc(C)c4c(c3)Nc3nccc(N5CCOCC5)c3[C@H](C)O4)C2)C1 (single isomer, unassigned) [Compound 231] |
| 4170 | > 10000 | 10.1 | 0.000115 | 11.3 | – | – | – | – | C=CC(=O)N1CC(N2CCC(c3ccc4c(c3)Nc3nccc(-c5cnn(C)c5)c3[C@H](C)O4)CC2)C1 (single isomer, unassigned) [Compound 232] |
| 28.2 | 8710 | – | – | – | – | – | 1450 | – | C=CC(=O)N1CC(N2CCC(c3ccc4c(c3)Nc3nccc(-c5cnn(C)c5)c3[C@@H](C)O4)CC2)C1 (single isomer, unassigned) [Compound 233] |
| 95.5 | 8510 | – | – | – | – | – | – | 610.385 | C=CC(=O)N1CC[C@H](N2CC(c3cc4c(c(C(F)(F)F)n3)OCc3c(N5CCOCC5)ccnc3N4)C2)C1 (single isomer, unassigned) [Compound 234] |
